{"source": "patent EP4635958A1", "about": "“PYRIMIDINE-CONTAINING POLYCYCLIC DERIVATIVE INHIBITOR, AND PREPARATION METHOD THEREFOR AND USE THEREOF” (Shanghai Hansoh Biomedical Co., Ltd., priority 2022, dated 2024)", "key": {"[1]": {"system": "GP2D", "experiment": "Inhibition of proliferation of KRAS G12D mutant tumor cell line GP2D (CellTiter-Glo)", "details": "Homo sapiens, GP2d, 72 h, read-out: GP2D IC50"}, "[2]": {"system": "AsPC-1", "experiment": "Inhibition of proliferation of KRAS G12D mutant tumor cell line AsPC-1 (CellTiter-Glo)", "assay_type": "cell-based", "details": "Homo sapiens, ASPC1, about 72 h", "protocol": "1. Experimental objective: The inhibition activity of the example compounds on the proliferation of 5 KRAS G12D mutant cell lines SNU-1, HPAF-II, Panc0403, AsPC-1 and GP2D was determined. 2. Experimental instruments: • 2.1 Instruments: Microplate reader (BioTek Synergy H1); Pipette (Eppendorf & Rainin). • 2.2 Reagents: HPAF-II, PANC0403, AsPC-1 and GP2D were purchased from COBIOER BIOSCIENCES CO., LTD; SNU-1 was purchased from the cell bank of Chinese Academy of Sciences, Cell Titer-Glo was purchased from Promega, with a catalog number of G7573; RPMI 1640 was purchased from Gibco, with a catalog number of 22400089; DMEM was purchased from Gibco, with a catalog number of 11995065; FBS was purchased from Gibco, with a catalog number of 10091148; PBS was purchased from Gibco, with a catalog number of 10010023; trypsin was purchased from Gibco, with a catalog number of 25200056; cell culture plates were purchased from Corning Company, with a catalog number of 3610. 3. Experimental method: When SNU-1, HPAF-II, Panc0403, AsPC-1 or GP2D cells were cultured to the appropriate confluence, and the SNU-1, HPAF-II, Panc0403, AsPC-1 or GP2D cells were collected. The cells were adjusted to the appropriate cell density using complete culture medium, the cell suspension was plated onto a 96-well plate at 90 µL per well, and the plate was placed in the incubator at 37°C and 5% CO2 for adherent culture overnight. Solutions of the compound with different concentrations were formulated using DMSO and culture medium. A vehicle control was set up. The solutions of the compound were added to the 96-well plate at 10 µL per well, and the plate was placed in the incubator at 37°C and 5% CO2 for further culture for about 72 h. Then, CellTiter-Glo solution was added, and the obtained mixture was shaken and mixed evenly, incubated in the dark for 10 min, and read with a BioTek Synergy H1 microplate reader. 4. Experimental data processing method: The luminescence signal value was used to calculate the inhibition rate. Graphpad Prism software was used to fit the concentration and inhibition rate to a nonlinear regression curve, so as to obtain the IC50 value. 5. Experimental results: Table 2: Determination of the inhibition activity of the compounds on the proliferation of KRAS G12D mutant tumor cell line GP2D"}, "[3]": {"experiment": "Pharmacokinetic determination in rats (IV and PO, plasma, LCMS/MS)", "assay_type": "in vivo, SD rats", "details": "rat, in vivo, PO, 30 mg/kg, male SD rats, overnight fasting, plasma", "protocol": "SD rats were used as test animals to study the pharmacokinetic behavior of the example compounds in rats (plasma) after oral administration.\n(§1) The example compounds of the present invention, made in house.\n3 SD rats per group, male. Shanghai Jiesijie Experimental Animal Co., Ltd., animal production license number (SCXK (Shanghai) 2013-0006 N0.311620400001794).\nFormulation of a drug for oral administration: 10% Captisol in 50 mM citrate buffer pH 5.0.\n(§2) Formulation of 50 mM citric acid: 4.8 g of citric acid was weighed into a 1000 ml glass bottle, ultrapure water was added to 300 ml, and the mixture was magnetically stirred until completely dissolved, additional ultrapure water was then added to 500 ml to formulate 50 mM citric acid.\n(§3) Formulation of a solution containing 50 mM citric acid (10% Captisol, PH = 5): 50 g of Captisol powder was weighed and added to a 1000 ml glass bottle, 300 ml of 50 mM citric acid was added, and the mixture was magnetically stirred until completely dissolved, then additional citric acid was added to 500 ml, and the PH was adjusted to 5 using 10 M NaOH.\nThe example compounds were weighed and dissolved in the solution and the mixture was shaken well and subjected to ultrasound treatment for 15 min to obtain a colorless clear solution with a concentration of 3 mg/mL.\n(§4) Formulation of a drug for intravenous administration: 5%DMSO+10%Solutol HS15+85%PBS.\n(§5) The example compounds were weighed, and 5% DMSO was added according to the total administration volume; the mixture was vortexed and sonicated for 2 min to ensure complete dissolution; then, 10% Solutol HS15 was added, and the mixture was vortexed and sonicated for 2 min to achieve complete dissolution; finally, 85% PBS was added, and the mixture was vortexed and sonicated for 5 min; the obtained mixture was filtered through a 0.22 um membrane to obtain a colorless, transparent, and clear solution with a concentration of 0.2 mg/mL.\n3 SD rats per group, male; After overnight fasting, the animals were administered orally (PO) at a dose of 30 mg/kg with an administration volume of 10 mL/kg.\n3 SD rats per group, male; After overnight fasting, the animals were administered intravenously (IV) at a dose of 1 mg/kg with an administration volume of 5 mL/kg.\n0.2 mL of blood was collected from the jugular vein before administration and at 0.25 h, 0.5 h, 1.0 h, 2.0 h, 4.0 h, 6.0 h, 8.0 h, and 24.0 h after administration and placed in an EDTA-2K test tube, and the test tube was centrifuged at 6000 rpm for 6 min at 4°C to separate the plasma, which was stored at -20°C. the animals were fed 4 h after administration.\nThe final determination results obtained by applying the LCMS/MS method are shown in the table below: Table 8: Pharmacokinetic parameters of the compounds administered intravenously in rats"}, "[4]": {"system": "human colorectal cancer cell line (GP2D)", "experiment": "Anti-tumor efficacy in mouse transplanted tumor model of human colorectal cancer cell line (GP2D)", "assay_type": "in vivo, mice (BALB/c nude)", "details": "100mpk, PO*BID", "description": "8-10 week old female conventional immunodeficient mice (BALB/c nude) with a body weight of 18 g-22 g were used as experimental animals, and a transplanted tumor model of human colorectal cancer cell line (GP2D) was used to conduct in vivo efficacy experiments to test the anti-tumor results of the example compounds after gavage administration.\nas §1\nA certain amount of the example compound was weighed, and an appropriate amount of 10% vehicle (Solutol HS15) was added. The mixture was stirred on a magnetic stirrer for 0.5 h to formulate a homogeneous suspension at the desired concentration.\nThe human colorectal cancer cell line (GP2D) was derived from COBIOER BIOSCIENCES CO., LTD, cultured on DMEM medium (Gibco, 11995-065) supplemented with 10% fetal calf serum (Gibco, 10091-148) and 1% penicillin/streptomycin (Gibco, 15140-122) and observed under a microscope (Thermo Fisher, 311). The cells were routinely passaged when the cells reached 80%-90% confluence in the culture flask. The passaged cells were cultured in a 37°C, 5% CO2 incubator (Thermo Fisher, 311).\nUnder aseptic conditions, human colorectal cancer cells (GP2D) in the logarithmic growth phase were harvested using 0.25% trypsin-EDTA (Gibco, 25200-056), washed and resuspended with phosphate buffer. The cell suspension was mixed with Matrigel (Corning, 356234) at a 1 : 1 ratio (v/v) and implanted subcutaneously into the right anterior dorsal region of immunodeficient mice (BALB/c nude). Each mouse was inoculated with 5*10^6 cells in a volume of 100 microliters (µL). After inoculation, when the tumor volume reached 100-200 mm^3, the mice would be evenly randomized into 5 groups based on the tumor size, with 5 mice per group, for in vivo efficacy experiments. The positive control group was the compound MRTX-1133, and the negative control group was the vehicle group.\nMode of administration: The positive control group was intraperitoneally injected, and the example compounds were administered orally.\nTwice a week, the long and short diameters of the tumor were measured using a vernier caliper, and the tumor volume (mm^3) was calculated using the formula: V = 0.5*D*d*d, where D and d are the long and short diameters of the tumor, respectively. The anti-tumor efficacy was determined by dividing the average increase in tumor volume of compound-treated animals by the average increase in tumor volume of untreated animals. The calculation formula for tumor inhibition rate was: When there is no tumor regression, TGI(%) = 100-[(Vt-V0) administration group/(Vt-V0) vehicle control group]*100%. When tumor regression occurs, TGI(%) = [1-(V1-V0) administration group/V0 vehicle control group]* 100%. All animals were euthanized after the experiment."}, "[5]": {"experiment": "Pharmacokinetic determination in mice (IV and PO, plasma, LCMS/MS)", "assay_type": "in vivo, Balb/c mice", "details": "mouse, in vivo, PO, 30 mg/kg, male Balb/c mice, overnight fasting, plasma", "description": "• 1. Study objective: Balb/c mice were used as test animals to study the pharmacokinetic behavior of the compounds in mice (plasma) after oral administration. • 2. Test scheme • 2.1 Test drugs: The example compounds of the present invention, made in house; • 2.2 Test animals: Balb/c mice, male, purchased from Shanghai Jiesijie Experimental Animal Co., Ltd., animal production license number (SCXK (Shanghai) 2013-0006 N0.311620400001794). • 2.3 Drug formulation: Formulation of a drug for oral administration: 10% Captisol in 50 mM citrate buffer pH 5.0.\nas §2, §3\nThe example compounds were weighed and added to a 4 mL glass bottle separately, 2.4 mL of the solution was added and the mixture was subjected to ultrasound treatment for 10 min to obtain a colorless clear solution with a concentration of 3 mg/mL.\nas §4, §5\n3 Balb/c mice, male; After overnight fasting, the animals were administered orally (PO) at a dose of 30 mg/kg with an administration volume of 10 mL/kg.\n3 Balb/C mice, male; After overnight fasting, the animals were administered intravenously (IV) at a dose of 1 mg/kg with an administration volume of 5 mL/kg.\n0.04 mL of blood was collected from the orbit before administration and at 0.25 h, 0.5 h, 1 h, 2 h, 4 h, 6 h, 8 h, and 24 h after administration and placed in an EDTA-2K test tube, and the test tube was centrifuged at 6000 rpm for 6 min at 4°C to separate the plasma, which was stored at -20°C; the animals were fed 4 h after administration.\nThe final determination results obtained by applying the LCMS/MS method are shown in the table below: Table 6: Pharmacokinetic parameters of the compounds administered intravenously in mice"}}, "data": [{"smiles": "C#Cc1c(F)ccc2cc(O)cc(-c3nc4c5c(nc(OCC6(CN7CCC(=CF)CC7C)CC6)nc5c3F)N3CC5CCC(N5)C3C(C)O4)c12", "note": "(stereo not shown) [Example 285]", "values": [{"measurement": "IC50", "setting": "[1]", "result": 0.16, "unit": "nM"}, {"measurement": "IC50", "setting": "[2]", "result": 4.8, "unit": "nM"}, {"measurement": "AUC(0-inf)", "setting": "[3]; read-out: AUCo-∞", "result": 598, "unit": "ng·h/mL"}, {"measurement": "Cmax", "setting": "[3]; read-out: Cmax", "result": 73, "unit": "ng/mL"}, {"measurement": "Tmax", "setting": "[3]; read-out: Tmax", "result": 2, "unit": "h"}, {"measurement": "Tumor volume (mm^3, Mean ± SD) Day 0", "setting": "[4]", "result": 167, "unit": "mm^3"}, {"measurement": "TGI(%) Day 14", "setting": "[4]", "result": 148.04, "unit": "%"}, {"measurement": "Tumor volume (mm^3, Mean ± SD) Day 14", "setting": "[4]", "result": 87, "unit": "mm^3"}, {"measurement": "ΔT/ΔC(%) Day 14", "setting": "[4]", "result": 10.99, "unit": "%"}]}, {"smiles": "C#Cc1c(F)ccc2cc(O)cc(-c3nc4c5c(nc(OCC6(CN7CCC(=CF)C7)CC6)nc5c3F)N3C[C@H]5CC[C@H](N5)[C@H]3[C@H](C)O4)c12", "note": "[Example 131]", "values": [{"measurement": "IC50", "setting": "[1]", "result": 0.17, "unit": "nM"}, {"measurement": "IC50", "setting": "[2]", "result": 5, "unit": "nM"}, {"measurement": "AUC(0-inf)", "setting": "[5]; read-out: AUC0-∞", "result": 559, "unit": "ng·h/mL"}, {"measurement": "Cmax", "setting": "[5]; read-out: Cmax", "result": 151, "unit": "ng/mL"}, {"measurement": "half-life", "setting": "[5]; read-out: T1/2 (converted)", "result": 18.3, "unit": "h"}, {"measurement": "Tmax", "setting": "[5]; read-out: Tmax", "result": 1, "unit": "h"}, {"measurement": "Tumor volume (mm^3, Mean ± SD) Day 0", "setting": "[4]", "result": 167, "unit": "mm^3"}, {"measurement": "TGI(%) Day 14", "setting": "[4]", "result": 127.11, "unit": "%"}, {"measurement": "Tumor volume (mm^3, Mean ± SD) Day 14", "setting": "[4]", "result": 122, "unit": "mm^3"}, {"measurement": "ΔT/ΔC(%) Day 14", "setting": "[4]", "result": 15.42, "unit": "%"}]}]}
